In the assay the test system is HPAECs. Briefly: HPAEC proliferation, cell counts by Hoechst-stained nuclei (Celigo). Conditions: Forskolin 40 μM, FTY720-P 50 nM, Methylprednisolone 1 μM; MCDB131. Type of assay: cell-based, Human. On the procedure:
HPAECs were seeded at low initial confluency (3000-5000 cells/cm^2) to study their growth on Collagen type-I coated culture dishes. Barrier agonists were added at 0 hours (FIG. 10A) or at 48 hours (FIG. 10B) and were maintained through the remainder of culture. Barrier agonist compounds, when added to the culture medium (MCDB131), were added at the following concentrations: Forskolin (40 μM), FTY720-P (50 nM), Methylprednisolone (1 μM). Cell counts were measured through individual quantification of nuclei, stained with Hoechst dye and imaged on the Celigo Imaging Cytometer (Nexcelom Bioscience).

On to `CCCCCCCCc1ccc(CC[C@](N)(CO)COP(=O)(O)O)cc1` [FTY720P, fingolimod-phosphate], for which the “endothelial cell proliferation (summary statement of Example 6)” value was “no reduction in endothelial proliferation”.

The values are drawn from patent US20230174947A1, “METHODS AND COMPOSITIONS FOR IMPROVING ENDOTHELIAL CELL BARRIER” (United Therapeutics Corporation, priority 2021, published 2023).
